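The compound was tested at five concentrations on cells cultured in 96-well plates, with a 48-hour exposure period. GI50 marks 50% less growth. The concentration for full growth arrest is given as TGI.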
Legend:
Assay in all cases: growth of human tumour cells (NCI), 48 h; in the data active means GI50 below about 0.43 µM; inactive means the rest
LOX IMVI melanoma = test system: LOX IMVI melanoma
A549 NSCLC = test system: A549 NSCLC
SNB-19 CNS = test system: SNB-19 CNS
HOP-92 NSCLC = test system: HOP-92 NSCLC
K-562 leukemia = test system: K-562 leukemia
SK-MEL-5 melanoma = test system: SK-MEL-5 melanoma
NCI-H226 lung = test system: NCI-H226 lung
EKVX NSCLC = test system: EKVX NSCLC
SNB-75 CNS = test system: SNB-75 CNS
MDA-MB-468 breast = test system: MDA-MB-468 breast
OVCAR-5 ovarian = test system: OVCAR-5 ovarian
NCI-H460 lung = test system: NCI-H460 lung
HCC-2998 colon = test system: HCC-2998 colon
HL-60(TB) leukemia = test system: HL-60(TB) leukemia
UACC-62 melanoma = test system: UACC-62 melanoma
MDA-MB-231 breast = test system: MDA-MB-231 breast
PC-3 prostate = test system: PC-3 prostate
HOP-62 NSCLC = test system: HOP-62 NSCLC
KM12 colon = test system: KM12 colon
SN12C renal = test system: SN12C renal
SF-268 CNS = test system: SF-268 CNS
SR leukemia = test system: SR leukemia
UO-31 renal = test system: UO-31 renal
CAKI-1 renal = test system: CAKI-1 renal
OVCAR-4 ovarian = test system: OVCAR-4 ovarian
HS 578T breast = test system: HS 578T breast
SK-MEL-28 melanoma = test system: SK-MEL-28 melanoma
CCRF-CEM leukemia = test system: CCRF-CEM leukemia
HCT-15 colon = test system: HCT-15 colon
A498 renal = test system: A498 renal
RXF 393 renal = test system: RXF 393 renal
IGROV1 ovarian = test system: IGROV1 ovarian
ACHN renal = test system: ACHN renal
MCF7 breast = test system: MCF7 breast
SK-OV-3 ovarian = test system: SK-OV-3 ovarian
TK-10 renal = test system: TK-10 renal
SF-295 CNS = test system: SF-295 CNS
SF-539 CNS = test system: SF-539 CNS
NCI-H23 lung = test system: NCI-H23 lung
MOLT-4 leukemia = test system: MOLT-4 leukemia
OVCAR-3 ovarian = test system: OVCAR-3 ovarian
HCT-116 colon = test system: HCT-116 colon
786-0 renal = test system: 786-0 renal
COLO 205 colon = test system: COLO 205 colon
SK-MEL-2 melanoma = test system: SK-MEL-2 melanoma
SW-620 colon = test system: SW-620 colon
DU-145 prostate = test system: DU-145 prostate
BT-549 breast = test system: BT-549 breast
MDA-MB-435 = test system: MDA-MB-435
HT29 colon = test system: HT29 colon
UACC-257 melanoma = test system: UACC-257 melanoma
MALME-3M melanoma = test system: MALME-3M melanoma
NCI-H522 lung = test system: NCI-H522 lung
T-47D breast = test system: T-47D breast
M14 melanoma = test system: M14 melanoma
U251 CNS = test system: U251 CNS
RPMI-8226 leukemia = test system: RPMI-8226 leukemia

CSc1ccc(C(=O)Nc2ccc3nnn(/C(C#N)=C/c4ccccn4)c3c2)cc1
2.65 µM: TGI (UO-31 renal) | TGI (CAKI-1 renal)
3.23 µM: TGI (MDA-MB-231 breast)
45.3 µM: TGI (SF-268 CNS)
7.12 µM: TGI (HS 578T breast)
2.92 µM: TGI (LOX IMVI melanoma)
3.26 µM: TGI (HCC-2998 colon)
4.35 µM: TGI (NCI-H460 lung)
3.5 µM: TGI (NCI-H23 lung)
2.84 µM: TGI (RXF 393 renal)
4.79 µM: TGI (SK-MEL-5 melanoma)
25.4 µM: TGI (SNB-75 CNS)
2.91 µM: TGI (MDA-MB-468 breast)
3.11 µM: TGI (SK-MEL-28 melanoma) | TGI (ACHN renal) | TGI (TK-10 renal)
7.14 µM: TGI (PC-3 prostate)
12.6 µM: TGI (HOP-62 NSCLC)
3.35 µM: TGI (UACC-62 melanoma)
2.72 µM: TGI (MCF7 breast)
4.65 µM: TGI (KM12 colon)
3.53 µM: TGI (HCT-15 colon)
26.9 µM: TGI (NCI-H226 lung)
53.3 µM: TGI (A498 renal)
3.05 µM: TGI (SF-539 CNS)
12.1 µM: TGI (SNB-19 CNS)
4.97 µM: TGI (SN12C renal)
3.8 µM: TGI (IGROV1 ovarian)
inactive: GI50 (LOX IMVI melanoma) 1.52 µM | GI50 (A549 NSCLC) 3.46 µM | GI50 (SNB-19 CNS) 3.14 µM | GI50 (HOP-92 NSCLC) 1.79 µM | GI50 (K-562 leukemia) 2.53 µM | GI50 (SK-MEL-5 melanoma) 2.01 µM | GI50 (NCI-H226 lung) 3.76 µM | GI50 (EKVX NSCLC) 2.15 µM | GI50 (SNB-75 CNS) 3.97 µM | GI50 (MDA-MB-468 breast) 1.31 µM | GI50 (OVCAR-5 ovarian) 1.75 µM | GI50 (NCI-H460 lung) 2.2 µM | GI50 (HCC-2998 colon) 1.79 µM | GI50 (HL-60(TB) leukemia) 2.67 µM | GI50 (UACC-62 melanoma) 1.68 µM | GI50 (MDA-MB-231 breast) 1.76 µM | GI50 (PC-3 prostate) 2.74 µM | GI50 (HOP-62 NSCLC) 3.11 µM | GI50 (KM12 colon) 1.94 µM | GI50 (SN12C renal) 2.13 µM | GI50 (SF-268 CNS) 4.16 µM | GI50 (SR leukemia) 2.75 µM | GI50 (UO-31 renal) 1.37 µM | GI50 (CAKI-1 renal) 1.33 µM | GI50 (OVCAR-4 ovarian) 4.53 µM | GI50 (HS 578T breast) 2.51 µM | GI50 (SK-MEL-28 melanoma) 1.68 µM | GI50 (CCRF-CEM leukemia) 2.1 µM | GI50 (HCT-15 colon) 1.66 µM | GI50 (A498 renal) 13.2 µM | GI50 (RXF 393 renal) 1.5 µM | GI50 (IGROV1 ovarian) 1.91 µM | GI50 (ACHN renal) 1.74 µM | GI50 (MCF7 breast) 1.28 µM | GI50 (SK-OV-3 ovarian) 24.5 µM | GI50 (TK-10 renal) 1.66 µM | GI50 (SF-295 CNS) 6.89 µM | GI50 (SF-539 CNS) 1.66 µM | GI50 (NCI-H23 lung) 1.78 µM | GI50 (MOLT-4 leukemia) 3.57 µM
4.62 µM: TGI (HOP-92 NSCLC)
> 100 µM: TGI (A549 NSCLC) | TGI (K-562 leukemia) | TGI (HL-60(TB) leukemia) | TGI (SR leukemia) | TGI (OVCAR-4 ovarian) | TGI (CCRF-CEM leukemia) | TGI (SK-OV-3 ovarian) | TGI (MOLT-4 leukemia)
4.89 µM: TGI (EKVX NSCLC)
21.4 µM: TGI (SF-295 CNS)
3.19 µM: TGI (OVCAR-5 ovarian)

CNC(=O)c1cc(Oc2ccc3nc(NC(=O)Nc4cccc(OC(F)(F)F)c4)sc3c2)ccn1
5.55 µM: TGI (SNB-19 CNS)
10.9 µM: TGI (MDA-MB-231 breast)
9.23 µM: TGI (OVCAR-4 ovarian)
10.2 µM: TGI (SF-539 CNS)
6.83 µM: TGI (SK-OV-3 ovarian)
13.5 µM: TGI (MDA-MB-468 breast)
inactive: GI50 (LOX IMVI melanoma) 4.15 µM | GI50 (OVCAR-3 ovarian) 3.27 µM | GI50 (A549 NSCLC) 2.69 µM | GI50 (SNB-19 CNS) 2.22 µM | GI50 (HOP-92 NSCLC) 1.66 µM | GI50 (HCT-116 colon) 4.67 µM | GI50 (K-562 leukemia) 5.51 µM | GI50 (SK-MEL-5 melanoma) 3.08 µM | GI50 (NCI-H226 lung) 2.56 µM | GI50 (786-0 renal) 2.71 µM | GI50 (EKVX NSCLC) 3.56 µM | GI50 (SNB-75 CNS) 2.34 µM | GI50 (MDA-MB-468 breast) 2.16 µM | GI50 (OVCAR-5 ovarian) 5.58 µM | GI50 (NCI-H460 lung) 2.58 µM | GI50 (HCC-2998 colon) 8.69 µM | GI50 (HL-60(TB) leukemia) > 100 µM | GI50 (UACC-62 melanoma) 2.07 µM | GI50 (MDA-MB-231 breast) 2.37 µM | GI50 (PC-3 prostate) 2.22 µM | GI50 (HOP-62 NSCLC) 1.72 µM | GI50 (KM12 colon) 0.809 µM | GI50 (SN12C renal) 5.11 µM | GI50 (SF-268 CNS) 4.3 µM | GI50 (SR leukemia) > 100 µM | GI50 (UO-31 renal) 3.93 µM | GI50 (COLO 205 colon) 5.43 µM | GI50 (SK-MEL-2 melanoma) 2.51 µM | GI50 (CAKI-1 renal) 2.01 µM | GI50 (OVCAR-4 ovarian) 2.97 µM | GI50 (SW-620 colon) 4.94 µM | GI50 (HS 578T breast) 2.29 µM | GI50 (SK-MEL-28 melanoma) 2.66 µM | GI50 (DU-145 prostate) 3.64 µM | GI50 (CCRF-CEM leukemia) 9.07 µM | GI50 (HCT-15 colon) 4.07 µM | GI50 (BT-549 breast) 3.21 µM | GI50 (A498 renal) 4.25 µM | GI50 (MDA-MB-435) 4.27 µM | GI50 (RXF 393 renal) 1.91 µM | GI50 (IGROV1 ovarian) 4.65 µM | GI50 (HT29 colon) 7.9 µM | GI50 (UACC-257 melanoma) 5.89 µM | GI50 (MALME-3M melanoma) 1.82 µM | GI50 (NCI-H522 lung) 3.5 µM | GI50 (ACHN renal) 2.32 µM | GI50 (T-47D breast) 5.08 µM | GI50 (MCF7 breast) 8.31 µM | GI50 (SK-OV-3 ovarian) 3 µM | GI50 (TK-10 renal) 4.09 µM | GI50 (SF-295 CNS) 1.7 µM | GI50 (SF-539 CNS) 3.07 µM | GI50 (M14 melanoma) 5.76 µM | GI50 (NCI-H23 lung) 2.91 µM | GI50 (U251 CNS) 2.43 µM | GI50 (MOLT-4 leukemia) > 100 µM | GI50 (RPMI-8226 leukemia) > 100 µM
21.6 µM: TGI (IGROV1 ovarian)
8.12 µM: TGI (SK-MEL-2 melanoma)
7.26 µM: TGI (ACHN renal)
7.09 µM: TGI (HS 578T breast)
9.77 µM: TGI (A498 renal)
89 µM: TGI (SF-268 CNS)
> 100 µM: TGI (OVCAR-3 ovarian) | TGI (A549 NSCLC) | TGI (HCT-116 colon) | TGI (K-562 leukemia) | TGI (SK-MEL-5 melanoma) | TGI (EKVX NSCLC) | TGI (OVCAR-5 ovarian) | TGI (NCI-H460 lung) | TGI (HCC-2998 colon) | TGI (HL-60(TB) leukemia) | TGI (PC-3 prostate) | TGI (KM12 colon) | TGI (SN12C renal) | TGI (SR leukemia) | TGI (UO-31 renal) | TGI (COLO 205 colon) | TGI (SW-620 colon) | TGI (SK-MEL-28 melanoma) | TGI (DU-145 prostate) | TGI (CCRF-CEM leukemia) | TGI (HCT-15 colon) | TGI (MDA-MB-435) | TGI (HT29 colon) | TGI (UACC-257 melanoma) | TGI (NCI-H522 lung) | TGI (T-47D breast) | TGI (MCF7 breast) | TGI (M14 melanoma) | TGI (MOLT-4 leukemia) | TGI (RPMI-8226 leukemia)
4.46 µM: TGI (HOP-92 NSCLC)
6.14 µM: TGI (NCI-H226 lung)
13.3 µM: TGI (UACC-62 melanoma)
4.17 µM: TGI (SF-295 CNS)
3.47 µM: TGI (HOP-62 NSCLC)
5.3 µM: TGI (MALME-3M melanoma)
6.27 µM: TGI (U251 CNS)
11.9 µM: TGI (NCI-H23 lung)
5.52 µM: TGI (SNB-75 CNS)
4.82 µM: TGI (RXF 393 renal)
13.2 µM: TGI (TK-10 renal)
4.72 µM: TGI (CAKI-1 renal)
7.41 µM: TGI (786-0 renal)
23.6 µM: TGI (LOX IMVI melanoma)
9.02 µM: TGI (BT-549 breast)

Source: PubChem BioAssay (NCI)
